Columns and labels:
PCSK9 [1] = target: T1, PCSK9 (Homo sapiens, UniProt Q8NBP7); assay: LDLR flow cytometric analysis (LDL-R assay); format: cell-based; settings: percentage recovery in the LDL-R assay at 20 uM concentration
T1 construct: host or cells: added to HepG2, HuH7, FL83B or shPCSK9 knockdown lines
Description: Cells, such as HepG2, HuH7, FL83B, or a cell line transfected with a short-hairpin PCSK9 knockdown sequence (e.g., HepG2/shPCSK9, HuH7/shPCSK9) can be cultured following routine procedures, such as those described by Benjannet et al., “Effects of the prosegment and pH on the activity of PCSK9: evidence for additional processing events” J Biol Chem. 285(52): 40965-40978 (2010), which is hereby incorporated by reference in its entirety.
LDLR levels can be measured using flow cytometry or fluorescence activated cell sorting (FACS) using protocols adapted from Benjannet et al., “Effects of the prosegment and pH on the activity of PCSK9: evidence for additional processing events” J Biol Chem. 285(52): 40965-40978 (2010) and “Composition and Methods of Use of Small Molecules as Binding Ligands for the Modulation of Proprotein Convertase Subtilisin/Kexin Type 9 (PCSK9) Protein Activity” (WO2016029037), which are incorporated by reference in their entirety.
Cells, such as HepG2, HuH7, FL83B, or a cell line transfected with a short-hairpin PCSK9 knockdown sequence such as HepG2/shPCSK9, HuH7/shPCSK9, or FL83B/shPCSK9 are cultured in media composed of complete, high glucose DMEM (Invitrogen) with 10% fetal bovine serum (Life Technologies), supplemented with penicillin-streptomycin (Life Technologies). Cells are plated in a 24-well plate, at 125 k cells/well, and cultured at 37° C. for 12-24 h. Culture media is removed and replaced with fresh culture media or culture media plus a predetermined amount of recombinant PCSK9 (final 5 ug/ml). Wells evaluating test compounds are dosed with concentrations ranging from 0 nM to 100 uM.
Following an incubation period of 4-6 hours at 37° C., the media is removed and the cells are rinsed by adding 0.5 ml of complete D-PBS (i.e., Dulbecco's phosphate buffered saline (D-PBS, Life Technologies) supplemented with 0.5% bovine serum albumin (BSA, Sigma) and 1 g/L glucose (Sigma)). The wash media is carefully aspirated, and cells are released from the plate using 200 uls of TrypLE Express (Life Technologies) by incubating for 5-10 minutes at 37° C. The TyrpLE-Cell suspension is inactivated by adding 100 uls of Fetal Bovine Serum, transferred to a v-bottom plate, and centrifuged at 250× gravity for 5 minutes. Following centrifugation, the supernatant is aspirated and the cell pellet is resuspended in 100 uL of complete D-PBS, and centrifuged at 250× gravity for 5 minutes. Following centrifugation, the supernatant is aspirated and the cell pellet is resuspended in 100 uls of antibody staining solution (600 uls of anti-LDLr-PE in complete D-PBS) and incubated on ice, protected from light, for 30 minutes. The cells are then pelleted by centrifugation, resuspended in 100 uL of 4′,6-Diamidino-2-phenylindole (DAPI, Cayman Chemical) or 7-aminoactinomycin D (7AAD, Life Technologies) staining solution to measure cell viability
Cells are analyzed for both cell viability marker (dead cells) and LDLR in live cells using a flow cytometer per the manufacturer's operating manual. Cells incubated with small molecule compounds that are inhibitors of PCSK9 will be expected to show increased amounts of LDLR, relative to control (no compound) specimens, and cells incubated with small molecule compounds that are activators of PCSK9 will be expected to show decreased amounts of LDLR relative to control (no compound) specimens.

PCSK9 [2] = target: T1, PCSK9; assay: Cellular DiI-LDL uptake analysis (LDL-uptake assay); format: cell-based; settings: for DiI-LDL uptake (% of control) at 20 µM: read-out: LDL-uptake % of control; for remaining activity at 20 µM: percentage uptake of DiI-LDL over the control at 20 uM concentration
Description: Cells, such as HepG2, HuH7, FL83B, or a cell line transfected with a short-hairpin PCSK9 knockdown sequence such as HepG2/shPCSK9, HuH7/shPCSK9, or FL83B/shPCSK9 are plated and cultured at 37° C. for 12-24 h. Culture media is removed and replaced with fresh lipoprotein-depleted culture media supplemented with 5 ug/mL of DiI-LDL (Kalen Biomedical) or lipoprotein-depleted culture media supplemented with 5 ug/mL of DiI-LDL plus a predetermined concentration of recombinant PCSK9, for example a 10 nM final concentration of PCSK9. Lipoprotein-depleted culture media can be composed of DMEM (Invitrogen) with 10% lipoprotein-depleted fetal bovine serum (Kalen Biomedical) and supplemented with penicillin-streptomycin (Life Technologies). Cells are dosed with small molecule test compounds at doses ranging from 0 nM to 100 uM.
The lipoprotein-depleted media is removed and cells rinsed three times with phosphate buffered saline. A final volume of phosphate buffered saline is added back to the wells. The DiI fluorescence is measured with a plate reader using an exciting wavelength of 550 nm and the resulting emission at 590 nm is measured. The Hoechst stain fluorescence is measured with a plate reader using an exciting wavelength of 355 nm and the resulting emission at 460 nm is measured.
Cells are analyzed by for both Hoechst stain (DNA content) and DiI-LDL fluorescence.

T1 sequence (Q8NBP7 153-692): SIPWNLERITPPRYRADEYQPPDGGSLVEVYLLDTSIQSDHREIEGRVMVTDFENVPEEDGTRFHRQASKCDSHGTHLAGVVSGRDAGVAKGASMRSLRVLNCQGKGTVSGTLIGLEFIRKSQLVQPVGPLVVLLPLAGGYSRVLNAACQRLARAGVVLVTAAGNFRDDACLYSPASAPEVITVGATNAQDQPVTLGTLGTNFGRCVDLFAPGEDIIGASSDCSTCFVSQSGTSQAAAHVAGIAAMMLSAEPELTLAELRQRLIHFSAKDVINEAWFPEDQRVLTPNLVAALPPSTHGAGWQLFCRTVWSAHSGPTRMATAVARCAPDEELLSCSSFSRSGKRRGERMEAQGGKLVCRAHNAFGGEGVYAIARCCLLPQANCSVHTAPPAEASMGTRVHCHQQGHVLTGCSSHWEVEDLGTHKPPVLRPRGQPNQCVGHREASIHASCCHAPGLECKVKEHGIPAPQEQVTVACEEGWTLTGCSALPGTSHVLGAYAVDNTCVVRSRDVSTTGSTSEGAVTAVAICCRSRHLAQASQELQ

SMILES: FC(F)(F)c1ccc(N2CCNCC2)c2ccccc12 [compound 1, 1-(4-(Trifluoromethyl)naphthalen-1-yl)piperazine]
- LDL-R % Recovered (PCSK9 [1]): +++ (>30% recovery)
- DiI-LDL uptake (% of control) at 20 µM (PCSK9 [2]): > 150%

SMILES: O=S(=O)(Nc1ccccc1)c1ccc(N2CCNCC2)c2ccccc12 [compound 73, N-phenyl-4-(piperazin-1-yl)naphthalene-1-sulfonamide]
- LDL-R % Recovered (PCSK9 [1]): + (0-10% recovery)
- remaining activity at 20 µM (PCSK9 [2]): 100 to 150%

SMILES: O=S(=O)(c1ccc(N2CCNCC2)c2ccccc12)C1CCNCC1 [compound 7, 1-(4-(Piperidin-4-ylsulfonyl)naphthalen-1-yl)piperazine]
- LDL-R % Recovered (PCSK9 [1]): + (0-10% recovery)
- remaining activity at 20 µM (PCSK9 [2]): > 150%

SMILES: NC(=O)N1CCN(c2cccc3ccccc23)CC1 [compound 11, 4-(Naphthalen-1-yl)piperazine-1-carboxamide]
- LDL-R % Recovered (PCSK9 [1]): + (0-10% recovery)
- DiI-LDL uptake (% of control) at 20 µM (PCSK9 [2]): < 100%

SMILES: Cc1ccc(C2CCNCC2)c2ccccc12 [compound 43, 4-(4-Methylnaphthalen-1-yl)piperidine]
- LDL-R % Recovered (PCSK9 [1]): ++ (10-30% recovery)
- remaining activity at 20 µM (PCSK9 [2]): > 150%

SMILES: c1ccc2c(N3CCNCC3)ccc(OC3CCNCC3)c2c1 [compound 4, 1-(4-(Piperidin-4-yloxy)naphthalen-1-yl)piperazine]
- LDL-R % Recovered (PCSK9 [1]): + (0-10% recovery)
- remaining activity at 20 µM (PCSK9 [2]): > 150%

SMILES: c1ccc2c(N3CCNCC3)ccc(NC3CCNCC3)c2c1 [compound 5, N-(4-(Piperazin-1-yl)naphthalen-1-yl)piperidin-4-amine]
- LDL-R % Recovered (PCSK9 [1]): ++ (10-30% recovery)
- remaining activity at 20 µM (PCSK9 [2]): < 100%

SMILES: c1ccc2c(N3CCNCC3)cccc2c1 [compound 107, 1-(naphthalen-1-yl)piperazine]
- LDL-R % Recovered (PCSK9 [1]): ++ (10-30% recovery)
- DiI-LDL uptake (% of control) at 20 µM (PCSK9 [2]): > 150%

SMILES: O=C(c1ccc(N2CCNCC2)c2ccccc12)N1CCNCC1 [compound 8, Piperazin-1-yl(4-(piperazin-1-yl)naphthalen-1-yl)methanone]
- LDL-R % Recovered (PCSK9 [1]): + (0-10% recovery)
- remaining activity at 20 µM (PCSK9 [2]): > 150%

SMILES: O=S(=O)(c1ccc(C2CCNCC2)c2ccccc12)C1CCNCC1 [compound 23, 4-((4-(Piperidin-4-yl)naphthalen-1-yl)sulfonyl)piperidine]
- LDL-R % Recovered (PCSK9 [1]): + (0-10% recovery)
- remaining activity at 20 µM (PCSK9 [2]): > 150%
